Results taken from ChEMBL document CHEMBL5543126, “Combinatorial Ubiquitination REal-time PROteolysis (CURE-PROs): A Modular Platform for Generating Reversible, Self-Assembling Bifunctional Targeted Degraders” (J Med Chem, 2024).
The source made the active and inactive calls. The rule behind the calls is not given here.

Legend:
[1] = target: T1, Protein cereblon/Bromodomain-containing protein 4 (Homo sapiens) (UniProt O60885+Q96SW2); experiment: PROTAC activity at BRD4/CRBN in human HeLa cells assessed as induction of BRD4 degradation in presence of N-((2-(2,6-dioxopiperidin-3-yl)-1,3-dioxoisoindolin-4-yl)methyl)-2,3-dihydroxybenzamide by Combinatorial Ubiquitination Real-time PROteolysis analysis; assay type: cell-based; conditions: dose 0.1-10 µM
[2] = target: T2, Protein cereblon/Bromodomain-containing protein 3 (Homo sapiens) (UniProt Q15059+Q96SW2); experiment: (§1) PROTAC activity at BRD3/CRBN in human HeLa cells assessed as induction of BRD3 degradation at 10 uM in presence of CRBN ligand based N-((2-(2,6-dioxopiperidin-3-yl)-1,3-dioxoisoindolin-4-yl)methyl)-2,3-dihydroxybenzamide incubated for 24 hrs by Combinatorial Ubiquitination Real-time PROteolysis analysis; assay type: cell-based
[3] = target: T2, Protein cereblon/Bromodomain-containing protein 3 (Homo sapiens); experiment: as §1, with “BRD2/CRBN” for “BRD3/CRBN”, “BRD2” for “BRD3”; assay type: cell-based
[4] = target: T2, Protein cereblon/Bromodomain-containing protein 3 (Homo sapiens); experiment: PROTAC activity at BRD3/CRBN in human HeLa cells assessed as induction of BRD3 degradation at 10 uM in presence of BRD3 ligand based (3-((4-((4S)-4-(2-(ethylamino)-2-oxoethyl)-8-methoxy-1-methyl4Hbenzo[f][1,2,4]triazolo[4,3-a][1,4]diazepin-6-yl)phenyl)thio)phenyl)boronic acid incubated for 24 hrs by Combinatorial Ubiquitination Real-time PROteolysis analysis; assay type: cell-based
[5] = target: T1, Protein cereblon/Bromodomain-containing protein 4 (Homo sapiens); experiment: PROTAC activity at BRD4/CRBN in human HeLa cells assessed as induction of BRD4 degradation at 10 uM incubated for 24 hrs in presence of JQ1 by Western blot analysis; assay type: cell-based
[6] = target: T1, Protein cereblon/Bromodomain-containing protein 4 (Homo sapiens); experiment: PROTAC activity at BRD4/CRBN in human HeLa cells assessed as induction of BRD4 degradation at 10 uM incubated for 24 hrs in presence of BRD4 based ligand (3-((4S)-6-(4-chlorophenyl)-4-(2-(ethylamino)-2-oxoethyl)-1-methyl4H-benzo[f][1,2,4]triazolo[4,3-a][1,4]diazepin-8-yl)phenyl)boronic acid by Combinatorial Ubiquitination Real-time PROteolysis analysis; assay type: cell-based
BRD2/CRBN (Homo sapiens) = experiment: PROTAC activity at BRD2/CRBN in human HeLa cells assessed as induction of BRD2 degradation at 10 uM in presence of BRD3 ligand based (3-((4-((4S)-4-(2-(ethylamino)-2-oxoethyl)-8-methoxy-1-methyl4Hbenzo[f][1,2,4]triazolo[4,3-a][1,4]diazepin-6-yl)phenyl)thio)phenyl)boronic acid incubated for 24 hrs …
[7] = target: T3, BRD4/E3 ubiquitin-protein ligase Mdm2 (Homo sapiens) (UniProt Q00987+O60885); experiment: PROTAC activity at MDM2/BRD4 in human HCT-116 cells assessed as induction of BRD4 degradation incubated for 6 hrs; assay type: cell-based
[8] = target: T3, BRD4/E3 ubiquitin-protein ligase Mdm2 (Homo sapiens); experiment: (§2) PROTAC activity at MDM2/BRD4 in human HCT-116 cells assessed as induction of BRD4 degradation incubated for 6 hrs in presence of BRD4 ligand based (86)-N-(2-(2-(((4S)-6-(4-chlorophenyl)-4-(2-(ethylamino)-2-oxoethyl)-1-methyl-4H-benzo[f][1,2,4]triazolo[4,3-a][1,4]diazepin-8-yl)oxy)ethoxy)ethyl)-2,3-dihydroxybenzamide by Combinatorial Ubiquitination Real-time PROteolysis analysis; assay type: cell-based
[9] = target: T3, BRD4/E3 ubiquitin-protein ligase Mdm2 (Homo sapiens); experiment: as §2, with “activation” for “induction”, “caspase 3/7” for “BRD4 degradation”; assay type: cell-based
NAMALVA [10] = experiment: Antiproliferative activity against human NAMALVA cells assessed as reduction in cell viability incubated for 72 hrs by celltiter-glo assay; assay type: functional, cell-based
NAMALVA [11] = experiment: Antiproliferative activity against human NAMALVA cells assessed as reduction in cell viability incubated for 72 hrs in presence of BRD4 ligand based (86)-N-(2-(2-(((4S)-6-(4-chlorophenyl)-4-(2-(ethylamino)-2-oxoethyl)-1-methyl-4H-benzo[f][1,2,4]triazolo[4,3-a][1,4]diazepin-8-yl)oxy)ethoxy)ethyl)-2,3-dihydroxybenzamide by celltiter-glo assay; assay type: functional
[12] = target: T3, BRD4/E3 ubiquitin-protein ligase Mdm2 (Homo sapiens); experiment: PROTAC activity at MDM2/BRD4 in human HCT-116 cells assessed as downregulation of SLC19A1 level at 10 uM incubated for 24 hrs by qPCR analysis; assay type: cell-based
[13] = target: T3, BRD4/E3 ubiquitin-protein ligase Mdm2 (Homo sapiens); experiment: PROTAC activity at MDM2/BRD4 in human HCT-116 cells assessed as downregulation of SLC19A1 level at 10 uM incubated for 24 hrs in presence of BRD4 ligand based (86)-N-(2-(2-(((4S)-6-(4-chlorophenyl)-4-(2-(ethylamino)-2-oxoethyl)-1-methyl-4H-benzo[f][1,2,4]triazolo[4,3-a][1,4]diazepin-8-yl)oxy)ethoxy)ethyl)-2,3-dihydroxybenzamid by qPCR based Combinatorial Ubiquitination Real-time PROteolysis analysis; assay type: cell-based
[14] = target: von Hippel-Lindau disease tumor suppressor/Bromodomain-containing protein 4 (Homo sapiens, UniProt O60885+P40337); experiment: PROTAC activity at BRD4/VHL in human MCF7 cells assessed as reduction in BRD4 level incubated for 24 hrs in presence of VHL based ligand (2S,4R)-1-((S)-2-(3,4-dihydroxybenzamido)-3,3-dimethylbutanoyl)-4-hydroxy-N-(4-(4-methylthiazol-5-yl)benzyl)pyrrolidine-2-carboxamide by Western blot based Combinatorial Ubiquitination Real-time PROteolysis analysis; assay type: cell-based
[15] = target: T3, BRD4/E3 ubiquitin-protein ligase Mdm2 (Homo sapiens); experiment: (§3) PROTAC activity at MDM2/BRD4 in human HCT-116 cells assessed as induction of BRD4 degradation incubated for 6 hrs in presence of MDM2 ligand based (4-((2-(4-((4S,5R)-4,5-bis(4-chlorophenyl)-2-(2-isopropoxy-4-methoxyphenyl)-4,5-dihydro-1H-imidazole-1-carbonyl)-2-oxopiperazin-1-yl)ethyl)carbamoyl)phenyl)boronic acid by Combinatorial Ubiquitination Real-time PROteolysis analysis; assay type: cell-based
[16] = target: T3, BRD4/E3 ubiquitin-protein ligase Mdm2 (Homo sapiens); experiment: as §3, with “activation” for “induction”, “caspase3/7” for “BRD4 degradation”; assay type: cell-based
NAMALVA [17] = experiment: Antiproliferative activity against human NAMALVA cells assessed as reduction in cell viability incubated for 72 hrs in presence of MDM2 ligand based (4-((2-(4-((4S,5R)-4,5-bis(4-chlorophenyl)-2-(2-isopropoxy-4-methoxyphenyl)-4,5-dihydro-1H-imidazole-1-carbonyl)-2-oxopiperazin-1-yl)ethyl)carbamoyl)phenyl)boronic acid by celltiter-glo assay; assay type: functional
[18] = target: T3, BRD4/E3 ubiquitin-protein ligase Mdm2 (Homo sapiens); experiment: PROTAC activity at MDM2/BRD4 in human HCT-116 cells assessed as downregulation of SLC19A1 level at 10 uM incubated for 24 hrs in presence of MDM2 ligand based (4-((2-(4-((4S,5R)-4,5-bis(4-chlorophenyl)-2-(2-isopropoxy-4-methoxyphenyl)-4,5-dihydro-1H-imidazole-1-carbonyl)-2-oxopiperazin-1-yl)ethyl)carbamoyl)phenyl)boronic acid by qPCR based Combinatorial Ubiquitination Real-time PROteolysis analysis; assay type: cell-based
[19] = target: T1, Protein cereblon/Bromodomain-containing protein 4 (Homo sapiens); experiment: PROTAC activity at BRD4/CRBN in human HeLa cells assessed as induction of BRD4 degradation at 10 uM incubated for 24 hrs in presence of CRBN based ligand N-((2-(2,6-dioxopiperidin-3-yl)-1,3-dioxoisoindolin-4-yl)methyl)-2,3-dihydroxybenzamide by Combinatorial Ubiquitination Real-time PROteolysis analysis; assay type: cell-based
[20] = target: T1, Protein cereblon/Bromodomain-containing protein 4 (Homo sapiens); experiment: PROTAC activity at BRD4/CRBN in human HeLa cells assessed as induction of BRD4 degradation at 0.1 to 10 uM in presence of N-((2-(2,6-dioxopiperidin-3-yl)-1,3-dioxoisoindolin-4-yl)methyl)-2,3-dihydroxybenzamide by Combinatorial Ubiquitination Real-time PROteolysis analysis; assay type: cell-based; conditions: dose 0.1-10 µM

T3 sequence (Q00987 whole entry, looked up, other chains not shown): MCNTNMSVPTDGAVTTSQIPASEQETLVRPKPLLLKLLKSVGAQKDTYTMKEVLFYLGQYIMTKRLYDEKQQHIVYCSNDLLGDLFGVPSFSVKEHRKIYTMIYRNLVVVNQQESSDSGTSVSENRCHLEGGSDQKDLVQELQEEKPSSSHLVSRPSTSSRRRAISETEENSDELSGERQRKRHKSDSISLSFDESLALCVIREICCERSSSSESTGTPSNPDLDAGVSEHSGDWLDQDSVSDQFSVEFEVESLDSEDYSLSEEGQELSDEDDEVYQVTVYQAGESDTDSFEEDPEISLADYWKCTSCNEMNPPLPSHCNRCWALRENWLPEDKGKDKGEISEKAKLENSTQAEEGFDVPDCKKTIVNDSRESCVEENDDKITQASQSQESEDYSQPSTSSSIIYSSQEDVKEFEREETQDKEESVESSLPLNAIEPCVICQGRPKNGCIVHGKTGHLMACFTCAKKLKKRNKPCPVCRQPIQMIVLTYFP
T1 sequence (Q96SW2 whole entry, looked up, other chains not shown): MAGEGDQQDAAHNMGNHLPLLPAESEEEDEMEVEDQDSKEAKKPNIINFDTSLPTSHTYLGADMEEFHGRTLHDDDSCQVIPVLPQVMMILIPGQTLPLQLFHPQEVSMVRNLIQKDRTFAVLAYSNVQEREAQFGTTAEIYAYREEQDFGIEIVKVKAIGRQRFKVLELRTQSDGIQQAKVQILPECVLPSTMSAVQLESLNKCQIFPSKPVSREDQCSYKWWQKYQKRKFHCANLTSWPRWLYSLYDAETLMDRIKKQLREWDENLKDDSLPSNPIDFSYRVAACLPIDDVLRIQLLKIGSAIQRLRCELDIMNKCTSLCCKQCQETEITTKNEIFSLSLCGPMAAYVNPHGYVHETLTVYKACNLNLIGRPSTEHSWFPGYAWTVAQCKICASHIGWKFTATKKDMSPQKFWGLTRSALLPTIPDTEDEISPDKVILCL
T2 sequence (Q15059 2-726 limits assumed): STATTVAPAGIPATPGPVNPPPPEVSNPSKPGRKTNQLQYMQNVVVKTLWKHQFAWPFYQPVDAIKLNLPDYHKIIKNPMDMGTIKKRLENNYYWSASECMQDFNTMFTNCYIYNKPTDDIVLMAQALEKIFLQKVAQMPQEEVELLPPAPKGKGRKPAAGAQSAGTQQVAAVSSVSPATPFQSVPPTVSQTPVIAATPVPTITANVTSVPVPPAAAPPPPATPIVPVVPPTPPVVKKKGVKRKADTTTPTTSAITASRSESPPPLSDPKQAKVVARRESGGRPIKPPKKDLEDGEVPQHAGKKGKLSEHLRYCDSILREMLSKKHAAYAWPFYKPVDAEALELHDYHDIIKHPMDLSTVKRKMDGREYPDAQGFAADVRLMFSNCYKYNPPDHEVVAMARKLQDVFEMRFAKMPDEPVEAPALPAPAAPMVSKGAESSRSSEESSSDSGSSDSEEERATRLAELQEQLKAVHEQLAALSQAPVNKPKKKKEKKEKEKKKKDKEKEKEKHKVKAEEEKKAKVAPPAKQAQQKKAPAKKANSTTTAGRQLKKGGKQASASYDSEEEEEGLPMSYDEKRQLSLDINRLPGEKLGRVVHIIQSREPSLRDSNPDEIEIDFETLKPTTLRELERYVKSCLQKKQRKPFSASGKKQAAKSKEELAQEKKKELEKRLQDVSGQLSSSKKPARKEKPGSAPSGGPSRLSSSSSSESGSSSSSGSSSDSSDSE
T2 sequence (Q96SW2 whole entry partner): as the sequence (Q96SW2 whole entry, looked up, other chains not shown) above
von Hippel-Lindau disease tumor suppressor/Bromodomain-containing protein 4, sequence (P40337 whole entry, looked up, other chains not shown): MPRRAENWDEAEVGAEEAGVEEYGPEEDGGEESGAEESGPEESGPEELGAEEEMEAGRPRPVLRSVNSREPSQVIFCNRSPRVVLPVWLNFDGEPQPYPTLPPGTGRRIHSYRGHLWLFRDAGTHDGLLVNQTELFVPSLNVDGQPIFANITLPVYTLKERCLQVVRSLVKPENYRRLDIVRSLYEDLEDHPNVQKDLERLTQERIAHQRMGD

CCNC(=O)C[C@@H]1N=C(c2ccc(Sc3cccc(B(O)O)c3)cc2)c2cc(OC)ccc2-n2c(C)nnc21
Activity [1]: Dose-Dependent Effect
Activity [2]: Active
Activity [3]: Active

O=C1CCC(N2C(=O)c3cccc(CNC(=O)c4cccc(O)c4O)c3C2=O)C(=O)N1 (configuration not stated)
Activity [4]: Active
Activity [5]: inactive
Activity [6]: Active
Activity (BRD2/CRBN (Homo sapiens)): Active

CCNC(=O)C[C@@H]1N=C(c2ccc(Cl)cc2)c2cc(OCCOCCNC(=O)c3cccc(O)c3O)ccc2-n2c(C)nnc21
Activity [7]: inactive
Activity [8]: Active
Activity [9]: Active
IC50 (NAMALVA [10]): 51300 nM
IC50 (NAMALVA [11]): 724 nM
Activity [12]: inactive
Activity [13]: Active

Cc1ncsc1-c1ccc(CNC(=O)[C@@H]2C[C@@H](O)CN2C(=O)[C@@H](NC(=O)c2ccc(O)c(O)c2)C(C)(C)C)cc1
Activity [14]: inactive

COc1ccc(C2=N[C@H](c3ccc(Cl)cc3)[C@@H](c3ccc(Cl)cc3)N2C(=O)N2CCN(CCNC(=O)c3ccc(B(O)O)cc3)C(=O)C2)c(OC(C)C)c1
Activity [15]: Active
Activity [16]: Active
IC50 (NAMALVA [17]): 724 nM
Activity [18]: Active

CCNC(=O)C[C@@H]1N=C(c2ccc(Cl)cc2)c2cc(-c3cccc(B(O)O)c3)ccc2-n2c(C)nnc21
Activity [5]: inactive
Activity [19]: Active

CCNC(=O)C[C@@H]1N=C(c2ccc(Sc3ccccc3)cc2)c2cc(OC)ccc2-n2c(C)nnc21
Activity [20]: inactive
